How the values were obtained:
human FPR1 = human FPR1 (Homo sapiens (Human), UniProt P21462); assay: FPR1 cyclic adenosine monophosphate (cAMP) assay; assay type: cell-based; settings: CHO cells overexpressing human FPR1; forskolin 10 µM; inhibition of cAMP production; read-out: hFPR1 cAMP EC50
Summary of the method: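 CHO cells overexpressing human FPR1 (4,000 cells/well) stimulated with 10 µM forskolin plus 200 µM IBMX in the presence of compound (0.020 nM–100 µM, 1% DMSO), 30 min at room temperature. Intracellular cAMP measured by HTRF. Inhibition of cAMP production fitted to a 4-parameter logistic equation.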

human FPR2 = human FPR2 (Homo sapiens (Human), UniProt P25090); assay: FPR2 cyclic adenosine monophosphate (cAMP) assay; assay type: cell-based; settings: CHO cells overexpressing human FPR2; forskolin 5 µM; inhibition of cAMP production; read-out: hFPR2 cAMP2 EC50
Chain of human FPR2 (P25090 whole entry): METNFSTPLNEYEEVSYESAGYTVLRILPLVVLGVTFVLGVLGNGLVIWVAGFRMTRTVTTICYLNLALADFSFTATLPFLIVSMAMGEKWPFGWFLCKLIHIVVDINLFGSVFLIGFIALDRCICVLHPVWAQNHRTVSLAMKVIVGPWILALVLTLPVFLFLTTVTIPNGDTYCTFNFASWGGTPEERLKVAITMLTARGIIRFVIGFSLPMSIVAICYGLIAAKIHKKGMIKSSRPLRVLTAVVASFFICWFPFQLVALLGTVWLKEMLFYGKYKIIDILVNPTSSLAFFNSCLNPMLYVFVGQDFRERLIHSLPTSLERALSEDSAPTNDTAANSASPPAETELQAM
Summary of the method: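 CHO cells overexpressing human FPR2 (2,000/well) incubated 30 min at room temperature with compound (0.020 nM–100 µM, 1% DMSO), 5 µM forskolin and 200 µM IBMX.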

Chain of human FPR1 (P21462 whole entry): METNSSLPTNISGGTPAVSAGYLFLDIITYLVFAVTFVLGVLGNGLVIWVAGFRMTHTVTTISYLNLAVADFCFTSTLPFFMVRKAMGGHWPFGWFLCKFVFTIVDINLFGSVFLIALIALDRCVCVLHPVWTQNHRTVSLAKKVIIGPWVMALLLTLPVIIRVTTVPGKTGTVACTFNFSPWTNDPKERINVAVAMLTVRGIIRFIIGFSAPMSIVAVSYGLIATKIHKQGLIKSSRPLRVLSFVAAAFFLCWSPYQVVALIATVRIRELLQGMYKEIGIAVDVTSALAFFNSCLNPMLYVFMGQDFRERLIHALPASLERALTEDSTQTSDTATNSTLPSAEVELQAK

EC50 (human FPR1) [nM] | EC50 (human FPR2) [nM] | SMILES
140 | 5.8 | COc1cc(F)c([C@@H]2CN(c3cccn(CCO)c3=O)C(=O)[C@H]2NC(=O)c2ccc(OC(F)F)cc2)c(F)c1 [Example 219]
350 | 2.7 | COc1cc(F)c([C@@H]2CN(c3cccn(CCN(C)C)c3=O)C(=O)[C@H]2NC(=O)c2ccc(OC(F)F)cc2)c(F)c1 [Example 97]
18 | 9.1 | COc1cc(F)c([C@@H]2CN(c3c(C)ccn(CC4CCO4)c3=O)C(=O)[C@H]2NC(=O)c2ccc(OC(F)F)cc2)c(F)c1 (stereo partly shown) [Example 617]
450 | 6.6 | COc1cc(F)c([C@H]2[C@H](NC(=O)c3ccc(OC(F)F)cc3)C(=O)N(c3cccc(OCCO)n3)[C@H]2C)c(F)c1 [Example 559]
12 | 3.3 | COc1cc(F)c([C@@H]2CN(c3c(C)ccn(CC(F)F)c3=O)C(=O)[C@H]2NC(=O)c2ccc(Cl)cc2)c(F)c1 [Example 653]
210 | 8.8 | COc1cc(F)c([C@@H]2CN(c3ccc4n(c3=O)CCOC4=O)C(=O)[C@H]2NC(=O)c2ccc(OC(F)F)cc2)c(F)c1 [Example 668]
110 | 1.2 | COc1cc(F)c([C@@H]2CN(c3ccn(CC(F)F)n3)C(=O)[C@H]2NC(=O)c2ccc(OC(F)F)cc2)c(F)c1 [Example 661]
> 5000 | 1.8 | COCCN1CCC(c2cc(OC)cc(N3C(=O)[C@@H](NC(=O)c4ccc(OC(F)F)cc4)[C@H](c4c(F)cc(OC)cc4F)[C@@H]3C)n2)CC1 [Example 491]
23 | 6.2 | CCn1cccc(N2C[C@@H](c3ccc(OC)cc3F)[C@H](NC(=O)c3ccc(OC(F)F)cc3)C2=O)c1=O [Example 226]
220 | 2.9 | COc1cc(N2C[C@@H](c3c(F)cc(OC)cc3F)[C@H](NC(=O)c3ccc(OC(F)F)cc3)C2=O)nc(N2C[C@@H]3C[C@H]2CN3C)c1 [Example 285]
700 | 7.2 | COCCn1ccnc1N1C[C@@H](c2c(F)cc(OC)cc2F)[C@H](NC(=O)c2ccc(OC(F)(F)F)cc2)C1=O [Example 652]
12 | 3.1 | CCn1nccc(N2C[C@@H](c3c(F)cc(OC)cc3F)[C@H](NC(=O)c3ccc(OC(F)(F)F)cc3)C2=O)c1=O [Example 357]
> 10000 | 91 | COc1cc(F)c([C@@H]2CN(c3cc(Cl)cc(C(F)(F)F)c3)C(=O)[C@H]2NC(=O)c2ccc(OC(F)F)cc2)c(F)c1 [Example 12]
67 | 10 | COc1cc(F)c([C@@H]2CN(c3c(C)ccn(C)c3=O)C(=O)[C@H]2NC(=O)c2ccc(OC(F)F)cc2)c(F)c1 [Example 310]
720 | 1.9 | COc1cc(F)c([C@@H]2CN(c3cncn(CCC(F)(F)F)c3=O)C(=O)[C@H]2NC(=O)c2ccc(OC(F)F)cc2)c(F)c1 [Example 487]
150 | 2.3 | COc1cc(F)c([C@@H]2CN(c3c(C)ccn(C4CCN(C)C4)c3=O)C(=O)[C@H]2NC(=O)c2ccc(OC(F)F)cc2)c(F)c1 (stereo partly shown) [Example 507]
2 | 1 | COc1cc(F)c([C@@H]2CN(c3nc(N4CCC4=O)ccc3F)C(=O)[C@H]2NC(=O)c2ccc(OC(F)F)cc2)c(F)c1 [Example 46]
2.7 | 2.2 | COCCn1cccc(N2C[C@@H](c3ccc(OC)cc3F)[C@H](NC(=O)c3ccc(OC(F)F)cc3)C2=O)c1=O [Example 81]
13 | 1 | COCC(CO)n1nccc(N2C[C@@H](c3c(F)cc(OC)cc3F)[C@H](NC(=O)c3ccc(Cl)cc3)C2=O)c1=O (stereo partly shown) [Example 477]
550 | 15 | COc1cc(F)c([C@H]2[C@H](NC(=O)c3ccc(OC(F)F)cc3)C(=O)N(c3cccc(N4CCOCC4)n3)[C@H]2C)c(F)c1 [Example 574]
1.7 | 3.5 | COc1cc(F)c([C@@H]2CN(c3cccn(CC(C)OC)c3=O)C(=O)[C@H]2NC(=O)c2ccc(OC(F)(F)F)cc2)c(F)c1 (stereo partly shown) [Example 138]
570 | 5.1 | COc1cc(F)c([C@@H]2CN(c3cccn(C)c3=O)C(=O)[C@H]2NC(=O)c2ccc(Cl)cc2)c(F)c1 [Example 193]
5.5 | 5.8 | COc1cc(F)c([C@@H]2CN(c3c(C)ccn(Cc4cc(C)no4)c3=O)C(=O)[C@H]2NC(=O)c2ccc(OC(F)F)cc2)c(F)c1 [Example 579]
950 | 8.7 | COCCn1cccc(N2C[C@@H](c3c(F)cc(OC)cc3F)[C@H](NC(=O)c3ccc(C)cc3)C2=O)c1=O [Example 292]
31 | 3.5 | COc1cc(F)c([C@@H]2CN(c3ccnn(CCO)c3=O)C(=O)[C@H]2NC(=O)c2ccc(OC(F)(F)F)cc2)c(F)c1 [Example 356]

More lines, now with the values behind:

SMILES | EC50 (human FPR1) [nM] | EC50 (human FPR2) [nM]
CCn1ccc(C)c(N2C[C@@H](c3c(F)cc(OC)cc3F)[C@H](NC(=O)c3ccc(OC(F)(F)F)cc3)C2=O)c1=O [Example 228] | 1.2 | 6.2
COc1cc(F)c([C@@H]2CN(c3nc(C4CCN(CC(F)F)CC4)ccc3F)C(=O)[C@H]2NC(=O)c2ccc(OC(F)F)cc2)c(F)c1 [Example 549] | 28 | 4.1
COc1cc(F)c([C@@H]2CN(c3c(C)ccn(C4CCOCC4)c3=O)C(=O)[C@H]2NC(=O)c2ccc(OC(F)(F)F)cc2)c(F)c1 [Example 478] | 1 | 5.9
COc1cc(F)c([C@@H]2CN(c3cccn(C4CC4)c3=O)C(=O)[C@H]2NC(=O)c2ccc(C(F)(F)F)cc2)c(F)c1 [Example 116] | 34 | 3.1
COc1cc(F)c([C@@H]2CN(c3c(C)c4c(n(CCO)c3=O)CCC4)C(=O)[C@H]2NC(=O)c2ccc(Cl)cc2)c(F)c1 [Example 593] | 40 | 3.3
COc1ccc([C@@H]2CN(c3c(C)ccn(CC4CC4)c3=O)C(=O)[C@H]2NC(=O)c2ccc(OC(F)F)cc2)cc1 [Example 459] | 0.2 | 0.9
Cc1ccn(CC(F)F)c(=O)c1N1C[C@@H](c2ccc(Cl)cc2)[C@H](NC(=O)c2ccc(OC(F)F)cc2)C1=O [Example 415] | 3 | 6.8
COc1ccc([C@@H]2CN(c3c(C)ccn(C4CCC4)c3=O)C(=O)[C@H]2NC(=O)c2ccc(OC(F)F)cc2)cc1 [Example 577] | 0.2 | 0.6
COCC(CO)n1cccc(N2C[C@@H](c3ccc(Cl)cc3)[C@H](NC(=O)c3ccc(Cl)cc3)C2=O)c1=O (stereo partly shown) [Example 414] | 19 | 4.7
COc1cc(F)c([C@@H]2CN(c3nccc(N4C[C@@H]5C[C@H]4CN5C)c3C(F)(F)F)C(=O)[C@H]2NC(=O)c2ccc(Cl)cc2)c(F)c1 [Example 334] | 480 | 14
COCCn1cc(F)cc(N2C[C@@H](c3c(F)cc(OC)cc3F)[C@H](NC(=O)c3ccc(OC(F)(F)F)cc3)C2=O)c1=O [Example 322] | 97 | 10
COc1cc(F)c([C@@H]2CN(c3nccc(N4C[C@@H](C)N(C)[C@@H](C)C4)c3C#N)C(=O)[C@H]2NC(=O)c2ccc(Cl)cc2)c(F)c1 [Example 167] | > 10000 | 4.3
CC(O)Cn1cccc(N2C[C@@H](c3ccc(Cl)cc3)[C@H](NC(=O)c3ccc(Cl)cc3)C2=O)c1=O (stereo partly shown) [Example 424] | 11 | 2.2
COc1cc(F)c([C@@H]2CN(c3cccn(CCN(C)C)c3=O)C(=O)[C@H]2NC(=O)c2ccc(OC(F)(F)F)cc2)c(F)c1 [Example 85] | 160 | 2.3
COc1cc(F)c([C@@H]2CN(c3nccn(C4CC4)c3=O)C(=O)[C@H]2NC(=O)c2ccc(Cl)cc2)c(F)c1 [Example 546] | 1800 | 2.1
COCCn1cc(C)c(C)c(N2C[C@@H](c3c(F)cc(OC)cc3F)C(NC(=O)c3ccc(Cl)cc3)C2=O)c1=O (stereo partly shown) [Example 640] | 1200 | 2.2
COc1cc(F)c([C@@H]2CN(c3cccn4cc(CO)nc34)C(=O)[C@H]2NC(=O)c2ccc(Cl)cc2)c(F)c1 [Example 494] | 440 | 3.4
CCn1cc(C)c(C)c(N2C[C@@H](c3c(F)cc(OC)cc3F)C(NC(=O)c3ccc(OC(F)(F)F)cc3)C2=O)c1=O (stereo partly shown) [Example 639] | 57 | 5.8
COc1cc(F)c([C@@H]2CN(c3c(C)ccn(CC(C)O)c3=O)C(=O)[C@H]2NC(=O)c2ccc(Cl)cc2)c(F)c1 (stereo partly shown) [Example 581] | 10 | 1.3
COc1cc(F)c([C@@H]2CN(c3c(C(F)(F)F)ccn(C)c3=O)C(=O)[C@H]2NC(=O)c2ccc(Cl)cc2)c(F)c1 [Example 337] | 4300 | 17
COc1cc(F)c([C@@H]2CN(c3ccn(CC(F)F)n3)C(=O)[C@H]2NC(=O)c2ccc(OC(F)(F)F)cc2)c(F)c1 [Example 662] | 14 | 4
COCCn1ccc(C)c(N2C[C@@H](c3ccc(Cl)cc3)[C@H](NC(=O)c3ccc(OC(F)(F)F)cc3)C2=O)c1=O [Example 339] | 0.6 | 23
COCCn1ccc(C)c(N2C[C@@H](c3ccc(OC)cc3)[C@H](NC(=O)c3ccc(OC(F)F)cc3)C2=O)c1=O [Example 260] | 1.2 | 7.5
COCC(CO)n1ccc(C)c(N2C[C@@H](c3ccc(OC)cc3)[C@H](NC(=O)c3ccc(OC(F)(F)F)cc3)C2=O)c1=O (stereo partly shown) [Example 563] | 2.3 | 2.3
COc1ccc([C@@H]2CN(c3ccnn(CC(F)F)c3=O)C(=O)[C@H]2NC(=O)c2ccc(Cl)cc2)cc1 [Example 690] | 24 | 11
